In ChEMBL document CHEMBL1201862, “PubChem BioAssay data set” (2004):
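Tested at 5 concentrations; 48 h exposure; 96-well plates; endpoints linearly interpolated, else capped at highest concentration. GI50 = concentration required for 50% inhibition of growth.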 Active and inactive are the calls of the source. Cut-off read from the data, not from the text of the source: active = GI50 up to about 1.1 µM and inactive = higher.

Experiments:
Assay in all cases: NCI-60 cell line screen, 48 h
UACC-62 = test system: UACC-62
IGROV-1 = test system: IGROV-1
COLO 205 = test system: COLO 205
A549 = test system: A549
LOX IMVI = test system: LOX IMVI
MOLT-4 = test system: MOLT-4
HCT-15 = test system: HCT-15
SF-295 = test system: SF-295
M14 = test system: M14
786-0 = test system: 786-0
EKVX = test system: EKVX
SN12C = test system: SN12C
CAKI-1 = test system: CAKI-1
U-251 = test system: U-251
PC-3 = test system: PC-3
T47D = test system: T47D
DU-145 = test system: DU-145
NCI/ADR-RES = test system: NCI/ADR-RES
SNB-19 = test system: SNB-19

Structure (SMILES) | GI50 (UACC-62) | GI50 (IGROV-1) | GI50 (COLO 205) | GI50 (A549) | GI50 (LOX IMVI) | GI50 (MOLT-4) | GI50 (HCT-15) [µM] | GI50 (SF-295) | GI50 (M14) | GI50 (786-0) | GI50 (EKVX) | GI50 (SN12C) | GI50 (CAKI-1) | GI50 (U-251) | GI50 (PC-3) | GI50 (T47D) | GI50 (DU-145) | GI50 (NCI/ADR-RES) | GI50 (SNB-19)
Cc1csc(CCC(N)C(=O)O)n1 (configuration not stated) | > 100 µM (inactive) | > 100 µM (inactive) | > 100 µM (inactive) | > 100 µM (inactive) | > 100 µM (inactive) | > 100 µM (inactive) | > 100 | > 100 µM (inactive) | > 100 µM (inactive) | > 100 µM (inactive) | > 100 µM (inactive) | > 100 µM (inactive) | > 100 µM (inactive) | > 100 µM (inactive) |  |  |  |  | 
COC(=O)C(C)(C)[C@@H]1OC(=O)N(S(=O)(=O)c2c(C)cc(C)cc2C)[C@H]1C(C)C | > 100 µM (inactive) | > 100 µM (inactive) | 27 µM (inactive) | 85.7 µM (inactive) | 78 µM (inactive) | 40 µM (inactive) | > 100 | > 100 µM (inactive) | 88.1 µM (inactive) | > 100 µM (inactive) | > 100 µM (inactive) | > 100 µM (inactive) |  | > 100 µM (inactive) | 32.7 µM (inactive) | 63.5 µM (inactive) | > 100 µM (inactive) | > 100 µM (inactive) | > 100 µM (inactive)
COc1cc(OC)c2c(C)cc(=O)oc2c1 | 96.4 µM (inactive) | 35.2 µM (inactive) | 54.1 µM (inactive) | 55.7 µM (inactive) | 47.1 µM (inactive) | 82.6 µM (inactive) | 56.5 | 75.9 µM (inactive) | > 100 µM (inactive) | 52.6 µM (inactive) | 50.5 µM (inactive) | 72.6 µM (inactive) |  | 84.7 µM (inactive) | > 100 µM (inactive) |  | 52.7 µM (inactive) | 63.8 µM (inactive) | > 100 µM (inactive)
COC(=O)/C=C\COCC1C2CCC(=O)C21 (configuration not stated) | 16.4 µM (inactive) | 10.5 µM (inactive) | 14 µM (inactive) | > 25 µM (inactive) | 14.5 µM (inactive) | 6.07 µM (inactive) | 9.57 | > 25 µM (inactive) | 8.36 µM (inactive) | 11.5 µM (inactive) | 9.16 µM (inactive) | > 25 µM (inactive) | 0.632 µM (active) | > 25 µM (inactive) | > 25 µM (inactive) |  | > 25 µM (inactive) | 17.4 µM (inactive) | > 25 µM (inactive)
CCNC1CC(C(C)(C)NCC)CC=C1C (configuration not stated) | > 100 µM (inactive) | > 100 µM (inactive) | > 100 µM (inactive) | > 100 µM (inactive) | > 100 µM (inactive) | > 100 µM (inactive) | > 100 | > 100 µM (inactive) | > 100 µM (inactive) | > 100 µM (inactive) | > 100 µM (inactive) | > 100 µM (inactive) |  | > 100 µM (inactive) | > 100 µM (inactive) | > 100 µM (inactive) | > 100 µM (inactive) | > 100 µM (inactive) | > 100 µM (inactive)
CC(C)(C)OC(=O)N[C@H]1CCN(C2CCCCC2)C1=O | > 100 µM (inactive) | > 100 µM (inactive) | > 100 µM (inactive) | > 100 µM (inactive) | > 100 µM (inactive) | > 100 µM (inactive) | > 100 |  | > 100 µM (inactive) | > 100 µM (inactive) | > 100 µM (inactive) | > 100 µM (inactive) |  | > 100 µM (inactive) | > 100 µM (inactive) |  | > 100 µM (inactive) | 40.6 µM (inactive) | > 100 µM (inactive)
COC(=O)C(C(=O)C(=O)Nc1nc2ccc([N+](=O)[O-])cc2s1)c1nc2ccc(Cl)cc2nc1O (configuration not stated) | > 100 µM (inactive) | > 100 µM (inactive) | > 100 µM (inactive) | > 100 µM (inactive) | > 100 µM (inactive) | > 100 µM (inactive) | > 100 | > 100 µM (inactive) | > 100 µM (inactive) | > 100 µM (inactive) | > 100 µM (inactive) | > 100 µM (inactive) | 71.3 µM (inactive) | 94.8 µM (inactive) |  |  |  |  | > 100 µM (inactive)
CC1=C(C)SC(=C2Sc3[n-]c(=O)[nH]c(=O)c3S2)S1.CCCC[N+](CCCC)(CCCC)CCCC | 27.2 µM (inactive) | > 100 µM (inactive) | > 100 µM (inactive) | > 100 µM (inactive) | 44.6 µM (inactive) | 95.1 µM (inactive) | > 100 | > 100 µM (inactive) | 31.3 µM (inactive) | > 100 µM (inactive) | > 100 µM (inactive) | > 100 µM (inactive) | > 100 µM (inactive) | > 100 µM (inactive) | > 100 µM (inactive) |  | > 100 µM (inactive) | 95.9 µM (inactive) | 73.1 µM (inactive)
COc1nc(NC2OC(COC(C)=O)C(OC(C)=O)C(OC(C)=O)C2OC(C)=O)c(-c2csc(N)n2)c(=O)n1C (configuration not stated) | 33.7 µM (inactive) | > 100 µM (inactive) | > 100 µM (inactive) | 55 µM (inactive) | > 100 µM (inactive) | > 100 µM (inactive) | > 100 | 68.4 µM (inactive) | 78.7 µM (inactive) | 20.5 µM (inactive) |  | > 100 µM (inactive) | 32.3 µM (inactive) | 61.5 µM (inactive) |  |  |  |  | > 100 µM (inactive)
CSC1=N/C(=C\c2c[nH]c3ccccc23)C(=O)N1 | 92.9 µM (inactive) | 67.6 µM (inactive) | 63 µM (inactive) | 69.8 µM (inactive) | 78.3 µM (inactive) | > 100 µM (inactive) | 75.3 |  | 73.6 µM (inactive) | 84.3 µM (inactive) |  | > 100 µM (inactive) |  | 56.4 µM (inactive) | 44.7 µM (inactive) | 53.2 µM (inactive) | 96.8 µM (inactive) | 85.7 µM (inactive) | > 100 µM (inactive)
COCC1OC(N2C(=O)NC(=O)[C@@H]3C=C4CCCCC4=C[C@@H]32)C(OC)C1OC (some centres not stated) | > 100 µM (inactive) | > 100 µM (inactive) |  | > 100 µM (inactive) | > 100 µM (inactive) | > 100 µM (inactive) | > 100 | > 100 µM (inactive) | > 100 µM (inactive) | > 100 µM (inactive) | > 100 µM (inactive) | > 100 µM (inactive) |  | > 100 µM (inactive) | > 100 µM (inactive) | > 100 µM (inactive) | > 100 µM (inactive) | > 100 µM (inactive) | > 100 µM (inactive)
COC(=O)c1ccccc1C1CN=NC12Cc1c(C)cccc1C2=O (configuration not stated) | > 100 µM (inactive) | > 100 µM (inactive) | > 100 µM (inactive) | 61.5 µM (inactive) | 45.1 µM (inactive) | 69.5 µM (inactive) | > 100 | 79.4 µM (inactive) | > 100 µM (inactive) | > 100 µM (inactive) | > 100 µM (inactive) | > 100 µM (inactive) | > 100 µM (inactive) | 80.7 µM (inactive) |  | 52.7 µM (inactive) | > 100 µM (inactive) | 60.8 µM (inactive) | > 100 µM (inactive)
CCc1nc2c(n1CC)C(=O)c1ccccc1C2=O | 28.8 µM (inactive) | 24.5 µM (inactive) | 16.8 µM (inactive) | 43.2 µM (inactive) |  | 33.9 µM (inactive) | 38.3 | 48.1 µM (inactive) | 23.7 µM (inactive) | > 100 µM (inactive) | 91.6 µM (inactive) | 27.8 µM (inactive) |  | 44.2 µM (inactive) | 18.8 µM (inactive) | 18.3 µM (inactive) | 66.5 µM (inactive) | 31.2 µM (inactive) | 45.6 µM (inactive)
NC(=O)N/N=C(\CC1OC(=O)c2ccccc21)c1ccco1 (configuration not stated) | > 100 µM (inactive) | > 100 µM (inactive) | > 100 µM (inactive) | > 100 µM (inactive) | > 100 µM (inactive) | > 100 µM (inactive) | > 100 | > 100 µM (inactive) | > 100 µM (inactive) | 92.9 µM (inactive) | > 100 µM (inactive) |  | > 100 µM (inactive) |  |  |  |  |  | > 100 µM (inactive)
O=C(O[C@@H](/C=C/c1ccccc1)P1(=O)N(Cc2ccccc2)[C@@H]2CCCC[C@H]2N1Cc1ccccc1)c1ccccc1 | 3.8 µM (inactive) | 2.79 µM (inactive) | 2 µM (inactive) | 3.07 µM (inactive) | 3.15 µM (inactive) |  | 2.99 | 3.55 µM (inactive) | 3.66 µM (inactive) | 3.89 µM (inactive) | 3.98 µM (inactive) | 3.18 µM (inactive) | 1.48 µM (inactive) | 3.21 µM (inactive) | 3.31 µM (inactive) | 0.0984 µM (active) |  | 3.66 µM (inactive) | 4.54 µM (inactive)
COc1ccc(/C=C/C(=O)c2sc(N)nc2C)cc1 | > 100 µM (inactive) | > 100 µM (inactive) | > 100 µM (inactive) | > 100 µM (inactive) | > 100 µM (inactive) | > 100 µM (inactive) | > 100 | > 100 µM (inactive) |  | > 100 µM (inactive) | > 100 µM (inactive) | > 100 µM (inactive) | > 100 µM (inactive) | > 100 µM (inactive) |  |  |  |  | > 100 µM (inactive)
CC(=O)OCC1OC(n2c3c(c(-c4ccc(Cl)cc4)c(C#N)c2=S)CCCC3)C(OC(C)=O)C(OC(C)=O)C1OC(C)=O (configuration not stated) | 23.3 µM (inactive) | 45.9 µM (inactive) | 35.2 µM (inactive) | 36.1 µM (inactive) | 44.9 µM (inactive) | 25.1 µM (inactive) | 61.2 | 37.9 µM (inactive) | 81.1 µM (inactive) | 80.7 µM (inactive) |  | 88.5 µM (inactive) |  | 88.9 µM (inactive) | 25.5 µM (inactive) | 36.7 µM (inactive) | 42.6 µM (inactive) | 46.5 µM (inactive) | 41.8 µM (inactive)
